Common to all, as to experiment: DLBCL cell line sensitivity to IKE (CellTiter-Glo viability, 24 h)
Holding throughout (assay type): cell-based
A general note: ATP-based viability assays read luminescence as a measure of living cells.

The test system of test [1] is KARPAS 422. Conditions: KARPAS 422, 24 hours. As to the method:
(§1) DLBCL cells were plated at 10,000 cells per well in white 384-well plates (32 μL per well) in technical duplicates and incubated overnight. The cells were then treated with 8 μL medium containing a two-fold dilution series of vehicle (DMSO), IKE (starting from 100 μM) with or without Fer-1 (starting from 200 μM). After 24 h incubation, 40 μL of 50% CellTiter-Glo (Promega) 50% cell culture medium was added to each well and incubated at room temperature with shaking for 15 min. Luminescence was measured using a Victor X5 plate reader (PerkinElmer). All cell viability data were normalized to the DMSO vehicle condition. Experiments were performed three independent times with different passages for each cell line.

Test [2] has as its system A3/KAW. As to conditions: read-out: cell line sensitivity to IKE (IC50 class). The method, then: as §1
The subject of test [3] is DOHH 2. As to conditions: Homo sapiens; DOHH 2, 24 hours; read-out: cell line sensitivity to IKE (IC50 class). As to the method:
as §1

In test [4] the test system is SUDHL 7. As to conditions: SUDHL 7, 24 hours; read-out: cell line sensitivity to IKE (IC50 class). The method, then: as §1
The test system of test [5] is SUDHL 5. As to conditions: Homo sapiens, SU-DHL-5; SUDHL 5, 24 hours; read-out: cell line sensitivity to IKE (IC50 class). The method, then: as §1
The subject of test [6] is WSU-NHL. The method, then: as §1
Test [7] concerns LY 8. As to conditions: LY 8, 24 hours; read-out: cell line sensitivity to IKE (IC50 class). As to the method:
as §1

The test system of test [8] is HBL 1. As to conditions: HBL 1, 24 hours. The method, then: as §1
For test [9], the system named is SUDHL 8. Conditions: SUDHL 8, 24 hours. As to the method: as §1
Test [10] relates to SUDHL 2. Conditions: Homo sapiens, SU-DHL-2; SUDHL 2, 24 hours; read-out: cell line sensitivity to IKE (IC50 class). The method, then:
as §1

The subject of test [11] is RIVA. As to the method: as §1
The subject of test [12] is SUDHL 16. As to conditions: Homo sapiens, SU-DHL-16; SUDHL 16, 24 hours; read-out: cell line sensitivity to IKE (IC50 class). As to the method: as §1
Test [13] concerns SUDHL 6. Conditions: Homo sapiens, SU-DHL-6; SUDHL 6, 24 hours; read-out: cell line sensitivity to IKE (IC50 class). The method, then: as §1
In test [14] the test system is SUDHL 10. As to conditions: Homo sapiens, SU-DHL10; SUDHL 10, 24 hours; read-out: cell line sensitivity to IKE (IC50 class). The method, then:
as §1

In test [15] the test system is SUDHL 9. Conditions: SUDHL 9, 24 hours. As to the method:
as §1

Test [16] deals with U937. Conditions: Homo sapiens, U-937; U937, 24 hours; read-out: cell line sensitivity to IKE (IC50 class). As to the method: as §1
Test [17] concerns LY 7. As to conditions: LY7; LY 7, 24 hours; read-out: cell line sensitivity to IKE (IC50 class). The method, then:
as §1

The subject of test [18] is U2932. As to conditions: Homo sapiens; U2932, 24 hours; read-out: cell line sensitivity to IKE (IC50 class). The method, then: as §1

Molecules are shown by their SMILES.

For `CC(C)Oc1ccc(C(=O)Cn2ccnc2)cc1-n1c(CN2CCN(C(=O)COc3ccc(Cl)cc3)CC2)nc2ccccc2c1=O` [IKE, Imidazole ketone erastin], the “cell line sensitivity to IKE (IC50 class)” value in test [1], in test [6], in [8], in test [9], in test [11] and in test [15] was “moderately resistant” in each case. Further, the 50% inhibitory concentration (IC50) (as a rule, the point on the concentration scale where inhibition reaches its midpoint) in test [2] is more than 10000 nM; in [3], less than 100 nM; in test [4], more than 10000 nM; in test [5] it was less than 100 nM; in [7], less than 100 nM; in test [10], less than 100 nM. For the same compound, the concentration for half-maximal inhibition (IC50) in [12] is less than 100 nM; in test [13] it was less than 100 nM; in test [14], less than 100 nM; in test [16], more than 10000 nM; in test [17], more than 10000 nM; in test [18], more than 10000 nM.

Values taken from US20210267978A1, “NANOPARTICLE FORMULATIONS OF IKE AND METHODS OF USE THEREOF” (The Trustees of Columbia University in the City of New York, priority 2018, published 2021).
